# Measured values published in patent US20260231945A1, “NEMATICIDAL COMPOUNDS, THEIR COMPOSITION AND USE THEREOF” (priority 2023, published 2026).
# System: Root-knot nematodes Meloidogyne spp. juveniles (J2)
# Assay: whole plant or invertebrate
# Assay type: in vivo
# Conditions: 500 ppm; 70-100 J2 juveniles; 22±2° C., 70±5% RH; dead/inactive counted at 24, 48, 72 and 96 hours (time of rating not stated)
# Experimental: The compound to be tested (4 mg) was dissolved in 40 μl of DMSO to make 100,000 PPM concentration stock solution. […] The nematode suspension (250 μl) having 70-100 juveniles (J2) of Root-knot nematodes Meloidogyne spp. pipetted out to each cell of 24 well bioassay plate. Sterile water (1 ml) was pipetted out in fresh 2.5 ml Eppendorf micro-centrifuge tubes. The desired concentration (500 ppm) of the compound was prepared by adding stock solution in 2.5 ml Eppendorf micro-centrifuge tubes. For each treatment 4 replications were maintained. The bioassay plates were incubated at 22±2° C. and 70±5% RH in humidity chambers.
row,SMILES,% Mortality Rating
1,N=C(N)NCCCC(N=CC=Cc1ccc2scnc2c1)C(=O)O (centres unmarked) [Example 57],A (70-100)
2,N=C(N)NCCCC(N=CC=Cc1cnccn1)C(=O)O (centres unmarked) [Example 44],B (50-69)
3,N=C(N)NCCCC(N=CC=Cc1ccc(C(F)(F)F)cc1)C(=O)O (centres unmarked) [Example 28],B (50-69)
4,N=C(N)NCCCC(N=CC=Cc1ccn[nH]1)C(=O)O (centres unmarked) [Example 50],B (50-69)
5,N=C(N)NCCCC(N=CC=Cc1nc2ccccc2o1)C(=O)O (centres unmarked) [Example 65],B (50-69)
6,C=CCc1cccc(C=CC=NC(CCCNC(=N)N)C(=O)O)c1O (centres unmarked) [Example 36],A (70-100)
7,N=C(N)NCCCC(N=CC=Cc1ccc2c[nH]cc2c1)C(=O)O (centres unmarked) [Example 59],A (70-100)
8,N=C(N)NCCCC(N=CC=Cc1cccnn1)C(=O)O (centres unmarked) [Example 45],C (0 to 49)
9,C=CCc1ccc(C=CC=NC(CCCNC(=N)N)C(=O)O)c(O)c1 (centres unmarked) [Example 35],B (50-69)
10,N=C(N)NCCCC(N=CC=Cc1cnc[nH]1)C(=O)O (centres unmarked) [Example 51],B (50-69)
11,N=C(N)NCCCC(N=CC=Cc1ccc[nH]1)C(=O)O (centres unmarked) [Example 54],B (50-69)
12,CC(C=NC(CCCNC(=N)N)C(=O)O)=Cc1cccs1 (centres unmarked) [Example 46],B (50-69)
13,C=CCc1ccc(C=CC=NC(CCCNC(=N)N)C(=O)O)cc1 (centres unmarked) [Example 34],B (50-69)
14,CCC(C=NC(CCCNC(=N)N)C(=O)O)=Cc1cccs1 (centres unmarked) [Example 47],B (50-69)
15,N=C(N)NCCCC(N=CC=Cc1ccccc1C(F)(F)F)C(=O)O (centres unmarked) [Example 30],B (50-69)
16,C=CCc1cccc(C=CC=NC(CCCNC(=N)N)C(=O)O)c1OC (centres unmarked) [Example 37],B (50-69)
17,N=C(N)NCCCC(N=CC=Cc1ccccn1)C(=O)O (centres unmarked) [Example 40],A (70-100)
18,N=C(N)NCCCC(N=CC=Cc1ncc[nH]1)C(=O)O (centres unmarked) [Example 52],B (50-69)
19,CCC(C=NC(CCCNC(=N)N)C(=O)O)=Cc1cscn1 (centres unmarked) [Example 48],B (50-69)
20,CCC(C=NC(CCCNC(=N)N)C(=O)O)=Cc1ccccc1OC(F)(F)F (centres unmarked) [Example 31],C (0 to 49)
21,N=C(N)NCCCC(N=CC=Cc1ccncn1)C(=O)O (centres unmarked) [Example 43],A (70-100)
22,CCOc1ccc(C=CC=NC(CCCNC(=N)N)C(=O)O)cc1 (centres unmarked) [Example 33],C (0 to 49)
23,COc1c(C=CC=NC(CCCNC(=N)N)C(=O)O)ccc2[nH]cnc12 (centres unmarked) [Example 61],C (0 to 49)
24,N=C(N)NCCCC(N=CC=Cc1cc2ccccc2o1)C(=O)O (centres unmarked) [Example 63],A (70-100)
25,N=C(N)NCCCC(N=CC=Cc1coc2ccccc12)C(=O)O (centres unmarked) [Example 64],B (50-69)
26,C=CCc1ccc(C=CC=NC(CCCNC(=N)N)C(=O)O)c(OC)c1 (centres unmarked) [Example 38],B (50-69)
27,N=C(N)NCCCC(N=CC=Cc1ccc2cc[nH]c2c1)C(=O)O (centres unmarked) [Example 58],A (70-100)
28,CC(C=NC(CCCNC(=N)N)C(=O)O)=Cc1ccc(C(F)(F)F)cc1 (centres unmarked) [Example 29],B (50-69)

# Same assay, conditions: Meloidogyne, 70-100 J2 juveniles, 22±2° C., 70±5% RH, dead/inactive counted at 24, 48, 72 and 96 hours (time of rating not stated)
row,SMILES,mortality at 500 ppm [%]
1,"COc1ccccc1/C=C/C=N/[C@@H](CCCNC(=N)N)C(=O)O [Example 6, (E)-N^2-[(2E)-3-(2-methoxyphenyl)prop-2-en-1-ylidene]-L-arginine]",70 to 100
2,"N=C(N)NCCC[C@H](/N=C/C=C/c1ccccc1O)C(=O)O [Example 1, (E)-N^2-[(2E)-3-(2-hydroxyphenyl)prop-2-en-1-ylidene]-L-arginine]",70 to 100
3,"CCCCCCC(/C=N/[C@@H](CCCNC(=N)N)C(=O)O)=C\c1ccccc1 [Example 13, (E)-N^2-[(2E)-2-benzylideneoctylidene]-L-arginine]",0 to 49
4,"N=C(N)NCCC[C@H](/N=C/C=C/c1ccc(F)cc1O)C(=O)O [Example 2, (E)-N^2-[(2E)-3-(4-fluoro-2-hydroxyphenyl)prop-2-en-1-ylidene]-L-arginine]",50 to 69
5,"CC(=O)Oc1ccc(/C=C/C=N/[C@@H](CCCNC(=N)N)C(=O)O)cc1 [Example 18, (E)-N^2-{(2E)-3-[4-(acetyloxy)phenyl]prop-2-en-1-ylidene}-L-arginine]",70 to 100
6,"CCC(/C=N/[C@@H](CCCNC(=N)N)C(=O)O)=C\c1ccco1 [Example 16, (E)-N^2-{(2E)-2-[(furan-2-yl)methylidene]butylidene}-L-arginine]",0 to 49
7,"CCCCCC(/C=N/[C@@H](CCCNC(=N)N)C(=O)O)=C\c1ccccc1 [Example 12, (E)-N^2-[(2E)-2-benzylideneheptylidene]-L-arginine]",0 to 49
8,"N=C(N)NCCC[C@H](/N=C/C=C/c1ccsc1)C(=O)O [Example 21, (E)-N^2-[(2E)-3-(thiophen-3-yl)prop-2-en-1-ylidene]-L-arginine]",70 to 100
9,"CC(/C=N/[C@@H](CCCNC(=N)N)C(=O)O)=C\c1ccco1 [Example 15, (E)-N^2-[(2E)-3-(furan-2-yl)-2-methylprop-2-en-1-ylidene]-L-arginine]",50 to 69
10,"N=C(N)NCCC[C@H](/N=C/C=C/c1ccc(Cl)cc1O)C(=O)O [Example 4, (E)-N^2-[(2E)-3-(4-chloro-2-hydroxyphenyl)prop-2-en-1-ylidene]-L-arginine]",50 to 69
11,"COc1cc(/C=C/C=N/[C@@H](CCCNC(=N)N)C(=O)O)ccc1OC(C)=O [Example 8, (E)-N^2-{(2E)-3-[4-(acetyloxy)-3-methoxyphenyl]prop-2-en-1-ylidene}-L-arginine]",0 to 49
12,"N=C(N)NCCC[C@H](/N=C/C=C/c1ccccc1OC(=O)c1ccccc1)C(=O)O [Example 19, (E)-N^2-{(2E)-3-[2-(benzoyloxy)phenyl]prop-2-en-1-ylidene}-L-arginine]",0 to 49
13,"COc1ccc(/C=C/C=N/[C@@H](CCCNC(=N)N)C(=O)O)cc1 [Example 7, (E)-N^2-[(2E)-3-(4-methoxyphenyl)prop-2-en-1-ylidene]-L-arginine]",70 to 100
14,"N=C(N)NCCC[C@H](/N=C/C=C/c1nccs1)C(=O)O [Example 23, (E)-N^2-[(2E)-3-(1,3-thiazol-2-yl)prop-2-en-1-ylidene]-L-arginine]",50 to 69
15,"COc1cc(/C=C/C=N/[C@@H](CCCNC(=N)N)C(=O)O)ccc1O [Example 17, (E)-N^2-[(2E)-3-(4-hydroxy-3-methoxyphenyl)prop-2-en-1-ylidene]-L-arginine]",70 to 100
16,"CCC(/C=N/[C@@H](CCCNC(=N)N)C(=O)O)=C\c1ccccc1 [Example 11, (E)-N^2-[(2E)-2-benzylidenebutylidene]-L-arginine]",70 to 100
